Measurements taken from ChEMBL document CHEMBL1154506, “Discovery and development of the anticancer agent salinosporamide A (NPI-0052)” (Bioorg Med Chem, 2009).

Columns and labels:
[1] = Cytotoxicity against human NCI60 cells; type: functional
HCT-116 = test: Cytotoxicity against human HCT116 cells; type: functional, cell-based

SMILES: C[C@@]12OC(=O)[C@]1([C@@H](O)[C@@H]1C=CCCC1)NC(=O)[C@@H]2CCCl [MARIZOMIB]
- GI50 [1]: < 10 nM
- IC50 (HCT-116): ≤ 2 ng/mL
